According to patent US20240391889A1, “ANTIMICROBIAL COMPOUNDS AND THE METHODS OF USE” (priority 2021, published 2024):
In brackets after ≈: the same amount, converted by molar mass. Where two headings read alike, the source gives them in different places. Numbered stars: 1 amine (or outer) side, 2 acyl side, 3 side chain; on linkers, the order of the positions; unused ones are H or OH. Square brackets hold non-standard residues; d marks the D form. Peptide text beside a SMILES is read from it. * marks the point of attachment. N(1S-cyclohexylethyl)Gly = C[C@H](NCC(=O)O)C1CCCCC1; N(3-imidazol-1-ylpropyl)Gly = O=C(O)CNCCCn1ccnc1; NCyclohexylmethylGly = O=C(O)CNCC1CCCCC1; N(tridecyl)Gly = CCCCCCCCCCCCCNCC(=O)O; N(4-MeOBn)Gly = COc1ccc(CNCC(=O)O)cc1; X1 = CC(c1ccccc1)N(CC(=O)[*:2])[*:1]; Gly(N-2-aminoethyl) = NCCNCC(=O)O; Myristoyl = CCCCCCCCCCCCCC(=O)*; NFurfurylGly = O=C(O)CNCc1ccco1; Gly(N(CH2)3NH2) = NCCCNCC(=O)O; Gly(N-cHex) = O=C(O)CNC1CCCCC1; Nphe = O=C(O)CNCc1ccccc1; NPrGly = CCCNCC(=O)O; Nlys = NCCCCNCC(=O)O

How the values were obtained:
HepG2 liver cells = assay: in vitro; assay type: cell-based
Experimental: (§1) The mammalian cell lines that were tested (HepG2, 3T3, and HaCat) were incubated with RMG9-11 for 72 hours and cell viability was determined via mitochondrial activity using an MTT reduction assay where viable cells reduce MTT to formazan. Toxicity is reported as the concentration of the peptoid that results in a 50% reduction in viable cells, termed toxicity dose 50% or TD50. […] SR is defined as the TD50 divided by MIC and provides a measure of the therapeutic window for a compound. Typically for most lead compounds that would continue through development and optimization, a SR of 10 is preferred while an SR of 100 is more desirable for a compound moving into preclinical animal model evaluation.
(§2) Hepatocellular carcinoma (HepG2), mouse fibroblast (3T3), and human keratinocyte (HaCat) cells were cultured in Dulbeco modified eagle media (DMEM) containing 10% fetal bovine serum (FBS) and 1% penicillin, streptomycin, and glutamine (PSG) at 37° C. and 5% CO2. Cells were collected and adjusted to […] to 4×10^5 cells/mL in phenol-red free DMEM and plated (100 μL) 96 well plates. 2-fold serial dilutions of 10× peptoid (11.1 μL) were added to each well in triplicate. Water (vehicle) was used as a negative control. Plates were incubated at 37° C. in 5% CO2 for 72 hours. Thiazolyl blue tetrazolium bromide (MTT) was added to each well (5 mg/mL; 20 μL) and incubated for 3 hours. Media was removed, DMSO (100 μL) was added, and plates were incubated at 37° C. for 10 minutes. Plates were read on a SPECTRAMAX M5 plate reader (Abs. 570 nm). The concentration of compound resulting in a 50% reduction in growth compared to control (toxicity dose 50%; TD50) was determined using GRAFIT. This procedure was repeated three times on separate days.

in vitro = assay type: cell-based; details: human, HepG2 hepatocellular carcinoma cells
Experimental: as §1, §2

C. neoformans = assay type: cell-based, Cryptococcus neoformans; details: 72 h
Description: (§3) This screening led to the discovery of RMG9-11 (FIG. 2C). The minimum inhibitory concentration (MIC) of resynthesized RMG9-11 was initially determined against C. albicans, C. neoformans, and the ESKAPE bacteria via CSLI guidelines (CLSI. Methods for Dilution Antimicrobial Susceptibility Tests for Bacteria That Grow Aerobically, 11th Edition. Clinical and Laboratory Standards Institute (2018); CLSI. Reference method for broth dilution antifungal susceptibility testing of yeasts; approved standard-third edition; CLSI document M27-A3. Clinical and Laboratory Standards Institute (2008)). […] C. albicans clinical isolates include a reference strain (M1), fluconazole susceptible strains (M4 and M6), and fluconazole resistant strains (M2, M3, M5, and M7). ATCC 64124 is multidrug resistant C. albicans strain that is resistant to amphotericin B, fluconazole, caspofungin, and flucytosine. All MICs were performed under CSLI guidelines in triplicate on at least three different days.
(§4) The minimum inhibitory concentration (MIC) of peptoids against fungal pathogens C. albicans and C. neoformans was determined following CLSI guidelines (Reference method for broth dilution antifungal susceptibility testing of yeasts; approved standard-third edition; CLSI document M27-A3.” CLSI. 2008.). Colonies were transferred from a streaked YPD plate to 0.85% saline to reach an OD530 between 0.18 and 0.25. This inoculant was diluted 1:100 into RPMI-MOPS and then further diluted 1:20 into RPMI-MOPS. 198 μL of inoculant was seeded into each well of a 96 well black-walled plate. 2-fold serial dilutions of 100× peptoid solutions were prepared in water and 2 μL of peptoid were added to each well in triplicate. […] MIC was defined as the lowest concentration of compound preventing fungal growth. This assay was repeated 3 times on separate days with each compound.

C. albicans = assay type: cell-based, Candida albicans; details: 24 h
Description: as §3, §4

[1] = Percent acetonitrile at time of elution from RP-HPLC (hydrophobicity); assay type: physicochemical
Experimental: Round 1 of the iterative SAR explored two miscellaneous derivatives along with derivatives that explored substitutions in position 3 (R^2; FIG. 6). Structures were confirmed by ESI-MS and hydrophobicity was determined by the percent acetonitrile at time of elution during RP-HPLC purification and using MarvinSketch to calculate the distribution coefficient at pH 7.4 (Table 5). Only one derivative of position 1 (group T of Formula 1) was explored, substituting a 14-carbon fatty acid (myristic acid) tail in place of the tridecyl tail (911-M1). This was tested because this fatty acid was previously shown to improve activity with C. albicans while reducing toxicity (Green R M, Bicker R. L. Evaluation of peptoid mimics of short, lipophilic peptide antimicrobials. Int J Antimicrob Agents. 2020; 56(2):106048. doi:10.1016/j.ijantimicag.2020.106048). The second miscellaneous derivative tested substituting the propyl group (Nnva) in position 2 (R^1) with a cationic group in an effort to reduce toxicity without effecting antifungal activity (911-M2). […]

MIC C. neoformans (C. neoformans) [µg/mL] | MIC C. albicans (C. albicans) [µg/mL] | % ACN [1] [%] | MIC C. neoformans (C. neoformans; listed as 911-10) | SMILES | HepG2 TD50 (HepG2 liver cells) [µg/mL] | cytotoxicity compared to RMG9-11 (HepG2 liver cells) | CC50 at 72 h (in vitro) [µg/mL] | toxicity compared to 911-M1 (HepG2 liver cells)
3.13 (≈ 2.92 µM) | 3.13 to 6.25 |  |  | CCCCCCCCCCCCCC(=O)NCC(=O)N(CCC)CC(=O)N(CC(=O)N(CCCCN)CC(=O)N(CC(=O)N(CC(=O)N(CCCN)CC(N)=O)Cc1ccccc1)Cc1ccco1)C(C)c1ccccc1 (stereo not drawn) [Compound 911-M1] (Myristoyl-G[NPrGly][X1][Nlys][NFurfurylGly][Nphe][Gly(N(CH2)3NH2)]-NH2) | 144.5 ± 22.6 | decreased cytotoxicity | 144 ± 22.6 (≈ 135 µM) | 
3.13 to 6.25 | 6.25 (≈ 5.73 µM) |  |  | CCCCCCCCCCCCCC(=O)NCC(=O)N(CCC)CC(=O)N(CC(=O)N(CCCCN)CC(=O)N(CC(=O)N(CC(=O)N(CCCN)CC(N)=O)[C@@H](C)C1CCCCC1)Cc1ccco1)C(C)c1ccccc1 (stereo partly drawn) [Compound 911-M17] (Myristoyl-G[NPrGly][X1][Nlys][NFurfurylGly][N(1S-cyclohexylethyl)Gly][Gly(N(CH2)3NH2)]-NH2) |  |  | 81.6 ± 5.97 (≈ 74.8 µM) | markedly more toxic
3.13 (≈ 3 µM) | 6.25 to 12.5 |  |  | CCCCCCCCCCCCCNCC(=O)N(CCN)CC(=O)N(CC(=O)N(CCCCN)CC(=O)N(CC(=O)N(CC(=O)N(CCCN)CC(N)=O)Cc1ccccc1)Cc1ccco1)C(C)c1ccccc1 (stereo not drawn) [Compound 911-M2] (H-[N(tridecyl)Gly][Gly(N-2-aminoethyl)][X1][Nlys][NFurfurylGly][Nphe][Gly(N(CH2)3NH2)]-NH2) |  | dramatic decrease in cytotoxicity | 177 ± 20.5 (≈ 170 µM) | 
6.25 to 12.5 | 25 (≈ 22.9 µM) |  |  | CCCCCCCCCCCCCC(=O)NCC(=O)N(CCC)CC(=O)N(CC(=O)N(CCCCN)CC(=O)N(CC(=O)N(CCCn1ccnc1)CC(=O)N(CCCN)CC(N)=O)Cc1ccco1)C(C)c1ccccc1 (stereo not drawn) [Compound 911-M14] (Myristoyl-G[NPrGly][X1][Nlys][NFurfurylGly][N(3-imidazol-1-ylpropyl)Gly][Gly(N(CH2)3NH2)]-NH2) |  |  | > 200 | 
6.25 (≈ 5.89 µM) | 6.25 (≈ 5.89 µM) |  |  | CCCCCCCCCCCCCC(=O)NCC(=O)N(CCC)CC(=O)N(CC(=O)N(CCCCN)CC(=O)N(CC(=O)N(CC(=O)N(CCCN)CC(N)=O)Cc1ccco1)Cc1ccco1)C(C)c1ccccc1 (stereo not drawn) [Compound 911-M18] (Myristoyl-G[NPrGly][X1][Nlys][NFurfurylGly][NFurfurylGly][Gly(N(CH2)3NH2)]-NH2) | 151.96 ± 8.04 |  | 152 ± 8.04 (≈ 143 µM) | slightly though not significantly better
3.13 to 6.25 | 6.25 (≈ 5.67 µM) |  |  | CCCCCCCCCCCCCC(=O)NCC(=O)N(CCC)CC(=O)N(CC(=O)N(CCCCN)CC(=O)N(CC(=O)N(CC(=O)N(CCCN)CC(N)=O)Cc1ccc(OC)cc1)Cc1ccco1)C(C)c1ccccc1 (stereo not drawn) [Compound 911-M16] (Myristoyl-G[NPrGly][X1][Nlys][NFurfurylGly][N(4-MeOBn)Gly][Gly(N(CH2)3NH2)]-NH2) |  |  | 136 ± 39.6 (≈ 123 µM) | 
3.13 (≈ 2.98 µM) | 6.25 (≈ 5.95 µM) |  |  | CCCCCCCCCCCCCNCC(=O)N(CCN)CC(=O)N(CC(=O)N(CCCCN)CC(=O)N(CC(=O)N(CC(=O)N(CCCN)CC(N)=O)Cc1ccccc1)Cc1ccco1)[C@@H](C)C1CCCCC1 [Compound 911-M13] (H-[N(tridecyl)Gly][Gly(N-2-aminoethyl)][N(1S-cyclohexylethyl)Gly][Nlys][NFurfurylGly][Nphe][Gly(N(CH2)3NH2)]-NH2) |  |  | 140 ± 33 (≈ 133 µM) | 
0.78 to 1.56 | 6.25 (≈ 6.04 µM) | 72.3 | sub-one | CCCCCCCCCCCCCNCC(=O)N(CCC)CC(=O)N(CC(=O)N(CCCCN)CC(=O)N(CC(=O)N(CC(=O)N(CCCN)CC(N)=O)Cc1ccccc1)Cc1ccco1)CC1CCCCC1 [Compound 911-M10] (H-[N(tridecyl)Gly][NPrGly][NCyclohexylmethylGly][Nlys][NFurfurylGly][Nphe][Gly(N(CH2)3NH2)]-NH2; N-terminus assumed) |  |  | 97.8 ± 18.3 (≈ 94.5 µM) | 
1.56 (≈ 1.53 µM) | 12.5 (≈ 12.2 µM) |  |  | CCCCCCCCCCCCCNCC(=O)N(CCC)CC(=O)N(CC(=O)N(CCCCN)CC(=O)N(CC(=O)N(CC(=O)N(CCCN)CC(N)=O)Cc1ccccc1)Cc1ccco1)C1CCCCC1 [Compound 911-M9] (H-[N(tridecyl)Gly][NPrGly][Gly(N-cHex)][Nlys][NFurfurylGly][Nphe][Gly(N(CH2)3NH2)]-NH2) |  |  | 99.5 ± 22 (≈ 97.4 µM) | 
3.13 (≈ 3.07 µM) | 12.5 (≈ 12.3 µM) |  |  | CCCCCCCCCCCCCNCC(=O)N(CCC)CC(=O)N(CC(=O)N(CCCCN)CC(=O)N(CC(=O)N(CC(=O)N(CCCN)CC(N)=O)Cc1ccccc1)Cc1ccco1)Cc1ccco1 [Compound 911-M7] (H-[N(tridecyl)Gly][NPrGly][NFurfurylGly][Nlys][NFurfurylGly][Nphe][Gly(N(CH2)3NH2)]-NH2) |  |  | 187 ± 21.5 (≈ 183 µM) | 
3.13 (≈ 2.9 µM) | 6.25 (≈ 5.8 µM) |  |  | CCCCCCCCCCCCCC(=O)NCC(=O)N(CCC)CC(=O)N(CC(=O)N(CCCCN)CC(=O)N(CC(=O)N(CC(=O)N(CCCN)CC(N)=O)CC1CCCCC1)Cc1ccco1)C(C)c1ccccc1 (stereo not drawn) [Compound 911-M20] (Myristoyl-G[NPrGly][X1][Nlys][NFurfurylGly][NCyclohexylmethylGly][Gly(N(CH2)3NH2)]-NH2) |  |  | 79.6 ± 5.12 (≈ 73.9 µM) | markedly more toxic
